Source: the NIST ThermoML archive (doi:10.1016/j.fluid.2015.10.047)

Key:
[1] = Molar enthalpy of transition or fusion; conditions: Crystal; DSC
[2] = molar heat capacity at constant pressure; conditions: 101.33 kPa, Large sample (1 g) DSC
[3] = Crystal; DTA

CO[C@H]1O[C@H](CO)[C@@H](O)[C@H](O)[C@H]1O [methyl-α-D-glucopyranoside]
Conditions | Molar enthalpy of transition or fusion [kcal/mol] | Normal melting temperature [°C]
[1] | 6.7 | –
[3] | – | 169.18

[2]
Conditions | molar heat capacity at constant pressure [J/K/mol]
298.15 K, Crystal | 291.48
303.15 K, Crystal | 294.68
308.15 K, Crystal | 297.16
313.15 K, Crystal | 300.15
318.15 K, Crystal | 302.5
323.15 K, Crystal | 305.37
328.15 K, Crystal | 308.34
333.15 K, Crystal | 311.81
338.15 K, Crystal | 315.04
343.13 K, Crystal | 317.77
348.15 K, Crystal | 320.54
353.15 K, Crystal | 323.46
358.15 K, Crystal | 327.84
363.15 K, Crystal | 331.47
368.15 K, Crystal | 334
373.15 K, Crystal | 336.83
378.15 K, Crystal | 339.69
383.15 K, Crystal | 342.52
388.15 K, Crystal | 345.56
393.15 K, Crystal | 348.77
398.15 K, Crystal | 352.33
403.15 K, Crystal | 356.35
408.15 K, Crystal | 360.93
413.15 K, Crystal | 366.26
418.15 K, Crystal | 369.54
423.15 K, Crystal | 372.62
428.15 K, Crystal | 376.07
433.15 K, Crystal | 379.37
453.15 K, Liquid | 510.58
458.15 K, Liquid | 511.8
463.15 K, Liquid | 513
468.15 K, Liquid | 514.17
473.15 K, Liquid | 515.44
478.15 K, Liquid | 516.62
483.15 K, Liquid | 517.93
488.15 K, Liquid | 519.22
493.15 K, Liquid | 520.14
498.15 K, Liquid | 521.17
503.15 K, Liquid | 522.4
508.15 K, Liquid | 523.64
513.15 K, Liquid | 524.87
